{
  "source": "patent US12338216B2",
  "about": "“Solvates of abscisic acid and liquid compositions containing abscisic acid” (Clariant International Ltd., priority 2019, dated 2025)",
  "key": {"[1]": {"tested_on": "enzymatically isolated cuticles of pear tree leaves", "test": "Penetration of abscisic acid through enzymatically isolated cuticles of pear tree leaves (HPLC)", "type": "in vitro ADME", "details": "active ingredient 0.1 g/L in spray liquid, tap water, n = 8-10", "procedure": "In this test, the penetration of abscisic acid through enzymatically isolated cuticles of pear tree leaves was measured. The principle of the method has been published and described in detail e.g. in WO-A-2005/194844 or WO2017211572 A1.\nTo determine the penetration, 10 μl a spray liquor of the composition mentioned in the examples were applied to the outer side of a cuticle. In the spray liquors tap water was used in each case.\nAfter application of the spray liquors was allowed to evaporate in each case the water, then in each case the chambers were inverted and placed in thermostated troughs, with air being blown at a defined temperature and humidity to the outside of the cuticle. The incipient penetration therefore took place at a relative humidity of 56% and a set temperature at 10° C. and 25° C. The penetration of active ingredients was determined by High Performance Liquid Chromatography (HPLC)."}, "[2]": {"details": "room temperature; cited from earlier work"}, "[3]": {"tested_on": "poinsettia plants, e.g. the Merlot variety", "test": "Phytotoxicity / plant compatibility on indicator plants", "type": "in vivo", "details": "1 g/L; within one day", "text": "The plant compatibility of the abscisic acid was checked using indicator plants such as poinsettia plants, e.g. the Merlot variety. If no necrosis or other phytotoxicity symptoms such as leaf curl-up or deformation in any case were observed the substance is considered plant compatible and not phytotoxic."}},
  "data": [
    {"compound": "CC1=CC(=O)CC(C)(C)[C@@]1(O)/C=C/C(C)=C\\C(=O)O", "note": "[abscisic acid, (2Z,4E)-5-[(1S)-1-hydroxy-2,6,6-trimethyl-4-oxocyclohex-2-en-1-yl]-3-methylpenta-2,4-dienoic acid]", "values": [
      {"measurement": "Mean penetration for abscisic acid after time", "setting": "[1]; 10° C./56% rH, 1 day", "value": 5.3, "unit": "%"},
      {"measurement": "Mean penetration for abscisic acid after time", "setting": "[1]; 10° C./56% rH, 2 day", "value": 8.2, "unit": "%"},
      {"measurement": "Mean penetration for abscisic acid after time", "setting": "[1]; 25° C./56% rH, 1 day", "value": 1.4, "unit": "%"},
      {"measurement": "Mean penetration for abscisic acid after time", "setting": "[1]; 25° C./56% rH, 2 day", "value": 2.2, "unit": "%"},
      {"measurement": "Highest concentration that can be achieved in water", "setting": "[2]", "value": "about 3000 ppm"}
    ]},
    {"compound": "ethoxylated lauryl alcohol", "values": [
      {"measurement": "Phytotoxicity symptoms", "setting": "[3]", "value": "strong distinct necrosis"}
    ]}
  ]
}
